{"source": "patent US8343985B2", "about": "“Methods for modulating Lyn kinase activity and treating related disorders” (Melior Pharmaceuticals I, Inc., priority 2005, dated 2013)", "key": {"[1]": {"test_system": "mouse model of hyperglycemia", "assay": "Oral glucose tolerance test in mice (mouse model of hyperglycemia)", "format": "in vivo", "conditions": "for blood glucose levels / blood glucose load in mouse model of type II diabetes: mice administered high levels of glucose", "text": "Type II diabetes is characterized by high blood glucose levels in the presence of normal amounts of insulin. Animal models of type II diabetes involve administering high levels of glucose and measuring blood glucose levels and the ability of the experimental animal to maintain glucose homeostasis over time. Several pharmacological structural classes can effectively regulate this hyperglycemic response including sulfonylureas, thiazoladinediones (PPARγ agonists; glitazones) or metformin (glucophage). These drug classes are also clinically approved for use in humans. In the current study, we established a mouse model of hyperglycemia by administering high levels of glucose to mice.\nGlucose was formulated in water at a concentration of 150 mg/ml and dosed at a volume of 10 ml/kg to produce a dose of 1.5 g/kg. Glucose was measured using the Ascensia II Elite XL glucose monitor (Bayer). Measure glucose by taking a small (2 mm) section off the tip of the tail, bleed onto glucose test strip and measure. Data for each time point analyzed by ANOVA and post-hoc Tukey's test. A p value of less then 0.05 was used to indicate statistical significance.\nIn study 1, mice were dosed with Compound 102 and glucose as follows:\nIn study 2, mice were dosed with Compound 102 and glucose as follows.\nStudy 3 tested Compound 102 and was conducted as follows: […]"}, "[2]": {"test_system": "Male CD1/ICR mice fed Western Diet", "assay": "Western diet study: weight gain, food intake, fat pad weights", "format": "in vivo", "text": "Male CD1/ICR mice were obtained from Harlan. The study was started when mice were 8 weeks of age. Prior to initiation of the study mice fasted for 24 hrs. Mice were fed “Western Diet” that was designed to approximate the “typical” human diet of North America and Europe (Research Diets; New Brunswick, N.J.; Western Diet composition). The Western Diet contained greater then 5 times more fat then normal chow. [table] Mice were weighed daily beginning from the start of the 24 hr fasting period. Food intake was monitored continuously. Mice were bled by retroorbital eyebleed on days 7, 14, 21 and 28 after the initiation of the study. On day of REB mice were dosed 1× with full dose 1 hr prior to bleed. Fat pads were dissected at the end of the study (day 31) weighed and frozen. The following fat pads were dissected: brown, inguinal, axial, mesenteric, renal and epidydimal. Data were averaged and analyzed by ANOVA followed by a post-hoc Tukey's test with a p value of less then 0.05 indicating a statistical difference."}, "leptin": {"test_system": "leptin", "assay": "Leptin levels in Western diet treated animals (ELISA)", "format": "in vivo", "conditions": "Western diet mice", "experimental": "Blood from mice that were on western diet (Compound 102) were analyzed for leptin levels. Mice were bled by retroorbital eyebleed on days 7, 14, 21 and 28 after the initiation of the study. On day of REB mice were dosed once with full dose 1 hr prior to bleed. Leptin levels were determined by ELISA (R&D Systems) as per directions. Data are expressed as the average ±SEM. Data were averaged and analyzed by ANOVA followed by a post-hoc Tukey's test with a p value of less then 0.05 indicating a statistical difference."}, "Db/Db mice [3]": {"test_system": "Db/Db mice", "assay": "In vivo Db/Db mouse glucose study", "experimental": "(§1) Db/Db and Db/lean mice were obtained from Harlan at 6 weeks of age. Mice were housed 3 per cage and fed ad libitum normal rodent chow. Mice were kept on a 12 hr Light:dark cycle.\n(§2) The study was initiated when mice reached an age of 8 weeks and their baseline blood glucose levels were greater than 200 mg/dl. Compound 102 was formulated in PBS: 2N HCl (99:1) at concentrations of 0.5, 1.5 and 5 mg/ml. Mice were dosed at volumes of 10 ml/kg to produce doses of 5, 15 and 50 mg/kg/dose. Mice were dosed twice per day at an 8 hr interval (8 am and 4 pm) during the light cycle.\nFor the acute blood glucose measurements, blood glucose levels were measured after the animals received their first dose of Compound 102. Blood glucose levels were measured two hrs after this initial injection."}, "Db/Db mice [4]": {"test_system": "Db/Db mice", "assay": "In vivo Db/Db mouse obesity study", "experimental": "as §1, §2\nMice were administered vehicle or drug (i.e., Compound 102) (5, 15, and 50 mg/kg) twice per day (bid) for the 28 days. Mouse weight and food intake were monitored daily. Food intake is reported as food intake (grams) per mouse per 24 hr period."}, "Zucker rats": {"test_system": "Zucker rats", "assay": "In vivo Zucker rat glucose study", "conditions": "30 mg/kg ip, glucose 1.5 g/kg, 30 and 270 minutes", "experimental": "Zucker rats and corresponding lean rats were supplied by Harlan. Rats were fed a normal diet, ad libitum, and kept on a 12 hr light/dark cycle. Rats were housed 3 per cage. At 12 weeks of age, Zucker rats were administered Compound 102 at a concentration of 30 mg/kg (ip). Blood glucose levels were measured 30 minutes after administration. Forty-five minutes after drug administration, animals were administered a glucose solution (1.5 g/kg) by oral gavage. Blood glucose levels were measured every 30 minutes after gavage for 4.5 hrs. There were 3 groups with 3 animals per group: 1) 3 Zucker leans (no drug; no glucose treatment); 2) Zucker vehicle treated group (glucose challenged and 3) Zucker Compound 102 treatment (30 mg/kg); glucose challenged."}, "Lyn Kinase enzyme": {"target": "Lyn Kinase enzyme (Homo sapiens, UniProt P07948)", "sequence (P07948 whole entry)": "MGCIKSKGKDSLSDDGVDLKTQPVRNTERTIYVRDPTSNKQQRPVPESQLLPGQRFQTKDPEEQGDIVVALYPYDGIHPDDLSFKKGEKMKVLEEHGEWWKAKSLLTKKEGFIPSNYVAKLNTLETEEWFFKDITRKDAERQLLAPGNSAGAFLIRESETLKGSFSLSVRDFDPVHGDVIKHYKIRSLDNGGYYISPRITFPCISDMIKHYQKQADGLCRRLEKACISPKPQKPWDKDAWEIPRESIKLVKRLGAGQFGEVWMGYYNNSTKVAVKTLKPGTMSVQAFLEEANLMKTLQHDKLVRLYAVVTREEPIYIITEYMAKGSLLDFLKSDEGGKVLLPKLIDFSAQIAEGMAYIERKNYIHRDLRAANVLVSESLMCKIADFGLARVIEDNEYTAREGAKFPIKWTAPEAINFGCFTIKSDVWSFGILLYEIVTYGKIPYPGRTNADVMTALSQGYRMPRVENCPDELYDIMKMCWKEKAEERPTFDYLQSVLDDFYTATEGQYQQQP", "assay": "In vitro Lyn kinase enzyme activity", "format": "biochemical", "conditions": "FIG. 12"}, "Db/Db mice [5]": {"test_system": "Db/Db mice", "assay": "In vivo Db/Db mouse obesity study", "conditions": "chronic administration to mice"}, "[6]": {"conditions": "single dose of 2 or 10 mg/kg, FIG. 3"}}, "note": "“Also recorded” adds a separate entry of the source.", "data": [{"smiles": "Cc1cccc(Oc2cnc(=O)[nH]c2)c1", "note": "[Compound 102]", "values": [{"measurement": "blood glucose levels / blood glucose load in mouse model of type II diabetes", "setting": "[1]", "value": "effective in reducing blood glucose levels"}, {"measurement": "time after drug administration at which significance was lost", "setting": "[1]; study 1, single administration, 30 mg/kg", "value": 90, "unit": "min"}, {"measurement": "normal blood glucose levels (pre-glucose loading)", "setting": "[1]; study 1, single administration, 30 mg/kg, mice", "value": "significantly decreased"}, {"measurement": "blood glucose levels produced by oral glucose administration", "setting": "[1]; study 1, single administration, 30 mg/kg, oral glucose 1.5 g/kg", "value": "significantly attenuated"}, {"measurement": "effect on blood glucose levels", "setting": "[1]; study 2, increased dosing (four times at 30 minute intervals)", "value": "more dramatic effect"}, {"measurement": "food intake", "setting": "[2]", "value": "not affected"}, {"measurement": "brown, axial, inguinal, renal and epididymal fat pad increases", "setting": "[2]; day 31", "value": "significantly reduced"}, {"measurement": "weight gain", "setting": "[2]; highest dose tested (30 mg/kg/day)", "value": "significantly reduced; also recorded: significant alteration in weight change"}, {"measurement": "blood leptin levels", "setting": "leptin", "value": "reduced leptin levels to those fed a normal diet"}, {"measurement": "acute blood glucose response upon study initiation and on weekly testing", "setting": "Db/Db mice [3]; 15 mg/kg and 50 mg/kg dose groups", "value": "acute dose response"}, {"measurement": "blood glucose levels following acute administration", "setting": "Db/Db mice [3]; 2 hrs after first dose", "value": "reduce blood glucose levels; also recorded: reduction in glucose levels"}, {"measurement": "blood glucose levels, dose dependence", "setting": "Db/Db mice [3]; IP twice/day, four weeks", "value": "dose dependent effect"}, {"measurement": "animal weight gain, dose dependence", "setting": "Db/Db mice [4]; Db/Db mice, IP twice/day, four weeks", "value": "dose dependent effect"}, {"measurement": "food intake", "setting": "Db/Db mice [4]; Db/Db mice, bid, 28 days", "value": "without affecting food intake"}, {"measurement": "weight gain", "setting": "Db/Db mice [4]; Db/Db mice, bid, 28 days", "value": "significantly lowered; also recorded: reduction in weight gain"}, {"measurement": "defecation", "setting": "Db/Db mice [4]; chronic administration to mice", "value": "defecated normally"}, {"measurement": "food intake compared to vehicle-treated animals", "setting": "Db/Db mice [4]; chronic administration to mice", "value": "normal food intake"}, {"measurement": "hyperactivity (as with amphetamine class of weight-loss drugs)", "setting": "Db/Db mice [4]; mouse, in vivo", "value": "did not display the hyperactivity"}, {"measurement": "blood glucose levels after oral glucose challenge", "setting": "Zucker rats", "value": "reduced blood glucose levels at both time points; also recorded: reduction is blood glucose levels"}, {"measurement": "in vitro activity of Lyn Kinase enzyme", "setting": "Lyn Kinase enzyme", "value": "increased in vitro activity"}, {"measurement": "weight-gain response of animals fed a high fat diet", "setting": "Db/Db mice [5]", "value": "significantly inhibited"}]}, {"smiles": "O=c1ncc(Oc2cccc(Cl)c2)c[nH]1", "note": "[Compound 105]", "values": [{"measurement": "blood glucose levels / blood glucose load in mouse model of type II diabetes", "setting": "[1]", "value": "effective in reducing blood glucose levels"}, {"measurement": "baseline blood glucose levels", "setting": "[1]; [6]", "value": "significantly depressed"}, {"measurement": "blood glucose levels at all time points after administration", "setting": "[1]; [6]", "value": "significantly (P<0.05) reduced"}]}, {"smiles": "CN(C)C(=N)N=C(N)N", "note": "[metformin, reference compound]", "values": [{"measurement": "blood glucose levels / blood glucose load in mouse model of type II diabetes", "setting": "[1]", "value": "can effectively reduce the blood glucose load"}]}]}
